Laboratory results as given in patent US20040063694A1, “Compound useful for the treatment of CNS disorders” (priority 2002, published 2004).

Legend:
[1] = test system: 5HT-2 receptors; assay: activity at 5HT-2 receptors
Text: (§1) The compound of the invention in all its forms is useful in the treatment of various central nervous system (CNS) disorders or conditions. The compound has been tested using standard behavioral models predictive of antipsychotic activity. These tests include the tests conducted in published papers mentioned above including the rat conditioned avoidance test, the rat catalepsy test and other tests including binding assays to central nervous system receptors including D-1 and D-2 dopamine receptors.

[2] = test system: 5HT-1 receptors; assay: activity at 5HT-1 receptors
Text: as §1

[3] = twenty-six week dog study, total cholesterol; details: female beagle dogs
Protocol: The dogs are studied over a course of 8 mgs/kg/day per drug for a twenty-six week period and assessed at varying time points for LDL, HDL and total cholesterol as well as having their estrous cycle monitored and measured. […] The preferred normal range in human patients of cholesterol level (total) is described in the Merck Manual as 120-220 mg/Dl.

[4] = twenty-six week dog study, blood glucose levels; details: female beagle dogs
Protocol: In addition to total cholesterol values other parameters were measured including blood glucose levels at pretest, week 13 and week 26 of the study.

[5] = beagle dogs; as stated in the '382 patent (alleged); cited from earlier work
[6] = 16 mg/kg, Chakabarti et al. J. Med. Chem. 1980; cited from earlier work
[7] = 10 mg/kg, Chakabarti et al. J. Med. Chem. 1980; cited from earlier work
[8] = previous dog study on a smaller group of animals, cholesterol; details: for rise in cholesterol: male or female beagle dogs, 4 mgs/kg/day
[9] = solubility in aqueous systems; format: physicochemical
Text: It is known that rate of dissolution of drug particles can be increased by increasing the surface area of the solid, i.e., decreasing the particle size. Consequently, methods of making finely divided drugs have been studied and efforts have been made to control the size and size range of drug particles in pharmaceutical compositions. For example, dry milling techniques have been used to reduce particle size and thereby influence drug absorption. However, in conventional dry milling, as discussed by Lachman et al., The Theory and Practice of Industrial Pharmacy, Chapter 2, “Milling”, p. 45 (1986), the limit of fineness is reached in the region of about 100 µm (=100,000 nm), where the milled material begins to cake onto the surfaces of the milling chamber. Lachman et al. note that wet grinding is beneficial in further reducing particle size, but that flocculation restricts the lower particle size limit to approximately 10 µm (=10,000 nm). Commercial airjet milling techniques have provided particles ranging in average particle size from as low as about 1 µm to 50 µm (=1,000 nm to 50,000 nm). It is […], however, that the 2-ethyl homolog of this invention is advantageously milled according to the above processes to make the compound having an average particle size of between about 1-200 micrometers. The preferred average particle size is less than 200 micrometers.

Structure (SMILES)	activity at the 5HT-2 receptors [1]	activity at the 5HT-1 receptors [2]	total average cholesterol values ([3]; 8 mgs/kg/day, twenty six weeks, effect of normal estrous cycle variations discounted)	average total cholesterol value, spike at a single point early on in the study ([3]; oral 8 mgs/kg/day)	mean total cholesterol values after the full duration of the study ([3]; oral 8 mgs/kg/day, twenty-six weeks, n=15 per arm)	blood glucose level, week 13 ([4]; oral 8 mgs/kg/day, week 13)	blood glucose level, week 26 ([4]; oral 8 mgs/kg/day, week 26)	blood glucose level, pretest ([4]; pretest (before dosing))	cholesterol raising effect [5]	rat catalepsy test [6]	rat conditioned avoidance test data [7]	rise in cholesterol relative to placebo ([8]; male beagle dogs, 8 mgs/kg/day)	rise in cholesterol [8]	solubility in aqueous systems relative to olanzapine [9]
CCc1cc2c(s1)Nc1ccccc1N=C2N1CCN(C)CC1 [Example 222, 2-ethyl-10-(4-methyl-1-piperazinyl)-4H-thieno[2,3-b][1,5]benzodiazepine]	shows activity	shows activity	≤ 240 mg/dL	237.2 mgs/dL	186.8 mgs/dL	87.9 mg/dL	77.6 mg/dL	82.5 mg/dL	some cholesterol raising effect	1	2 (31-50% block)	no rise in cholesterol	no rise in cholesterol	slightly less soluble than olanzapine
Cc1cc2c(s1)Nc1ccccc1N=C2N1CCN(C)CC1 [olanzapine, 2-methyl-10-(4-methyl-1-piperazinyl)-4H-thieno[2,3-b][1,5]benzodiazepine, reference compound]													no rise in cholesterol	
